{"source": "patent US8247211B2", "about": "“Glycopeptide antibiotics” (American Cyanamid Company, priority 2001, dated 2012)", "key": {"Staphylococcus sp.": {"tested_on": "Staphylococcus sp.", "assay": "In vitro antibacterial evaluation: minimum inhibitory concentration (MIC), broth dilution method", "type": "cell-based", "settings": "for MIC Staphylococcus aureus (ATCC 29213): strain ATCC 29213; for MIC Staphylococcus aureus (GC 1131): strain GC 1131; for MIC Staphylococcus aureus (GC 3051): strain GC 3051; for MIC Staphylococcus aureus (GC 3053): strain GC 3053; for MIC Staphylococcus aureus (GC 4541): strain GC 4541; for MIC Staphylococcus aureus (GC 4542): strain GC 4542; for MIC Staphylococcus aureus-SMITH (GC 4543): strain GC 4543; for MIC Staphylococcus aureus (GC 4544): strain GC 4544; for MIC Staphylococcus aureus (GC 4545): strain GC 4545; for MIC Staphylococcus haemolyticus (GC 4546): strain GC 4546; for MIC Coagulase Negative Staphylococcus (GC 4547): strain GC 4547; for MIC Coagulase Negative Staphylococcus (GC 4548): strain GC 4548; for MIC Coagulase Negative Staphylococcus (GC 4549): strain GC 4549; for MIC Coagulase Negative Staphylococcus (GC 4551): strain GC 4551; for MIC Coagulase Negative Staphylococcus (GC 6257): strain GC 6257", "method_in_brief": "(§1)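 Test strains, among them recent clinical isolates carrying methicillin, penicillin and/or vancomycin resistance, were inoculated at 5×10^5 CFU/mL. A broth dilution series spanning 64-0.06 μg/mL in Muller-Hinton II […] (NCCLS M7-A2) defined the MIC as the lowest growth-inhibiting concentration.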"}, "Escherichia coli": {"tested_on": "Escherichia coli", "assay": "In vitro antibacterial evaluation: minimum inhibitory concentration (MIC), broth dilution method", "type": "cell-based", "settings": "5×10^5 CFU/mL, 18 hours at 35° C.", "method_in_brief": "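Following NCCLS approved standard M7-A2, compounds are serially diluted from 64 to 0.06 μg/mL in Muller-Hinton II […] and inoculated at 5×10^5 CFU/mL; the MIC is the minimum concentration at which growth is inhibited.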"}, "Enterococcus sp.": {"tested_on": "Enterococcus sp.", "assay": "In vitro antibacterial evaluation: minimum inhibitory concentration (MIC), broth dilution method", "type": "cell-based", "settings": "broth dilution, 5×10^5 CFU/mL, 18 hours at 35° C.", "method_in_brief": "as §1"}, "Streptococcus sp.": {"tested_on": "Streptococcus sp.", "assay": "In vitro antibacterial evaluation: minimum inhibitory concentration (MIC), broth dilution method", "type": "cell-based", "settings": "broth dilution, 5×10^5 CFU/mL, 18 hours at 35° C.", "method_in_brief": "as §1"}, "[1]": {"tested_on": "Staphylococcus aureus-SMITH (GC 4543)", "assay": "Acute lethal infection in mice (ED50)", "type": "in vivo", "settings": "female CD-1 mice, intraperitoneal challenge, intravenous dose 30 min. after infection, 7 day survival ratios", "method_in_brief": "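Median effective dose is calculated from 7-day survival ratios pooled across three separate tests. Mice (female CD-1) receive an intraperitoneal bacterial challenge in broth or hog gastric mucin, then intravenous drug 30 min later, five animals per dose level.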"}, "[2]": {"settings": "broth dilution, 18 hours at 35° C."}}}
{"smiles": "CC(c1ccccc1)C1NC(=O)CNC(=O)C(CO)NC(=O)C(C(O)C2CNC(=N)N2C2OC(CO)C(O)C(O)C2O)NC(=O)C(C(O)C2CNC(=N)N2)NC(=O)C(Cc2ccc(OC3OC(CO)C(OC4OC5COC(CC6CCN(C(=O)OCc7ccccc7)CC6)OC5C(O)C4O)C(O)C3O)cc2)NC1=O", "note": "(stereo not drawn) [Example 113]", "values": [{"measurement": "MIC Staphylococcus aureus (ATCC 29213)", "setting": "Staphylococcus sp.", "result": 1, "unit": "µg/mL"}, {"measurement": "MIC Staphylococcus aureus (ATCC 29213)", "setting": "Staphylococcus sp.; [2]", "result": 1, "unit": "µg/mL"}, {"measurement": "MIC Staphylococcus aureus (GC 1131)", "setting": "Staphylococcus sp.", "result": 2, "unit": "µg/mL"}, {"measurement": "MIC Staphylococcus aureus (GC 1131)", "setting": "Staphylococcus sp.; [2]", "result": 2, "unit": "µg/mL"}, {"measurement": "MIC Staphylococcus aureus (GC 3051)", "setting": "Staphylococcus sp.", "result": 1, "unit": "µg/mL"}, {"measurement": "MIC Staphylococcus aureus (GC 3051)", "setting": "Staphylococcus sp.; [2]", "result": 1, "unit": "µg/mL"}, {"measurement": "MIC Staphylococcus aureus (GC 3053)", "setting": "Staphylococcus sp.", "result": 1, "unit": "µg/mL"}, {"measurement": "MIC Staphylococcus aureus (GC 3053)", "setting": "Staphylococcus sp.; [2]", "result": 1, "unit": "µg/mL"}, {"measurement": "MIC Staphylococcus aureus (GC 4541)", "setting": "Staphylococcus sp.", "result": 1, "unit": "µg/mL"}, {"measurement": "MIC Staphylococcus aureus (GC 4541)", "setting": "Staphylococcus sp.; [2]", "result": 1, "unit": "µg/mL"}, {"measurement": "MIC Staphylococcus aureus (GC 4542)", "setting": "Staphylococcus sp.", "result": 1, "unit": "µg/mL"}, {"measurement": "MIC Staphylococcus aureus (GC 4542)", "setting": "Staphylococcus sp.; [2]", "result": 1, "unit": "µg/mL"}, {"measurement": "MIC Staphylococcus aureus-SMITH (GC 4543)", "setting": "Staphylococcus sp.; 18 hours at 35° C.", "result": 1, "unit": "µg/mL"}, {"measurement": "MIC Staphylococcus aureus-SMITH (GC 4543)", "setting": "Staphylococcus sp.; [2]", "result": 1, "unit": "µg/mL"}, {"measurement": "MIC Staphylococcus aureus (GC 4544)", "setting": "Staphylococcus sp.", "result": 2, "unit": "µg/mL"}, {"measurement": "MIC Staphylococcus aureus (GC 4544)", "setting": "Staphylococcus sp.; [2]", "result": 2, "unit": "µg/mL"}, {"measurement": "MIC Staphylococcus aureus (GC 4545)", "setting": "Staphylococcus sp.", "result": 1, "unit": "µg/mL"}, {"measurement": "MIC Staphylococcus aureus (GC 4545)", "setting": "Staphylococcus sp.; [2]", "result": 1, "unit": "µg/mL"}, {"measurement": "MIC Staphylococcus haemolyticus (GC 4546)", "setting": "Staphylococcus sp.", "result": 1, "unit": "µg/mL"}, {"measurement": "MIC Staphylococcus haemolyticus (GC 4546)", "setting": "Staphylococcus sp.; [2]", "result": 1, "unit": "µg/mL"}, {"measurement": "MIC Coagulase Negative Staphylococcus (GC 4547)", "setting": "Staphylococcus sp.", "result": 1, "unit": "µg/mL"}, {"measurement": "MIC Coagulase Negative Staphylococcus (GC 4547)", "setting": "Staphylococcus sp.; [2]", "result": 1, "unit": "µg/mL"}, {"measurement": "MIC Coagulase Negative Staphylococcus (GC 4548)", "setting": "Staphylococcus sp.", "result": 0.5, "unit": "µg/mL"}, {"measurement": "MIC Coagulase Negative Staphylococcus (GC 4548)", "setting": "Staphylococcus sp.; [2]", "result": 0.5, "unit": "µg/mL"}, {"measurement": "MIC Coagulase Negative Staphylococcus (GC 4549)", "setting": "Staphylococcus sp.", "result": 1, "unit": "µg/mL"}, {"measurement": "MIC Coagulase Negative Staphylococcus (GC 4549)", "setting": "Staphylococcus sp.; [2]", "result": 1, "unit": "µg/mL"}, {"measurement": "MIC Coagulase Negative Staphylococcus (GC 4551)", "setting": "Staphylococcus sp.", "result": 1, "unit": "µg/mL"}, {"measurement": "MIC Coagulase Negative Staphylococcus (GC 4551)", "setting": "Staphylococcus sp.; [2]", "result": 1, "unit": "µg/mL"}, {"measurement": "MIC Coagulase Negative Staphylococcus (GC 6257)", "setting": "Staphylococcus sp.", "result": 0.5, "unit": "µg/mL"}, {"measurement": "MIC Coagulase Negative Staphylococcus (GC 6257)", "setting": "Staphylococcus sp.; [2]", "result": 0.5, "unit": "µg/mL"}, {"measurement": "MIC Escherichia coli (ATCC 25922)", "setting": "Escherichia coli", "result": 32, "unit": "µg/mL"}, {"measurement": "MIC Escherichia coli (GC 4559)", "setting": "Escherichia coli", "result": 32, "unit": "µg/mL"}, {"measurement": "MIC Escherichia coli (GC 4560)", "setting": "Escherichia coli", "result": 1, "unit": "µg/mL"}, {"measurement": "MIC Enterococccus avium (GC 4558)", "setting": "Enterococcus sp.", "result": 2, "unit": "µg/mL"}, {"measurement": "MIC Enterococccus faecalis (ATCC 29212)", "setting": "Enterococcus sp.", "result": 2, "unit": "µg/mL"}, {"measurement": "MIC Enterococccus faecalis (GC 2691)", "setting": "Enterococcus sp.", "result": 4, "unit": "µg/mL"}, {"measurement": "MIC Enterococccus faecalis (GC 3059)", "setting": "Enterococcus sp.", "result": 2, "unit": "µg/mL"}, {"measurement": "MIC Enterococccus faecalis (GC 4552)", "setting": "Enterococcus sp.", "result": 2, "unit": "µg/mL"}, {"measurement": "MIC Enterococccus faecalis (GC 4553)", "setting": "Enterococcus sp.", "result": 2, "unit": "µg/mL"}, {"measurement": "MIC Enterococccus faecalis (GC 4554)", "setting": "Enterococcus sp.", "result": 2, "unit": "µg/mL"}, {"measurement": "MIC Enterococccus faecalis (GC 6189)", "setting": "Enterococcus sp.", "result": 2, "unit": "µg/mL"}, {"measurement": "MIC Enterococccus faecium (GC 2243)", "setting": "Enterococcus sp.", "result": 2, "unit": "µg/mL"}, {"measurement": "MIC Enterococccus faecium (GC 4556)", "setting": "Enterococcus sp.", "result": 2, "unit": "µg/mL"}, {"measurement": "MIC Enterococccus faecium (GC 4557)", "setting": "Enterococcus sp.", "result": 2, "unit": "µg/mL"}, {"measurement": "MIC Enterococcus faecalis (GC 2242)", "setting": "Enterococcus sp.", "result": 4, "unit": "µg/mL"}, {"measurement": "MIC Streptococcus agalactiae (GC 4564)", "setting": "Streptococcus sp.", "result": 0.12, "unit": "µg/mL"}, {"measurement": "MIC Streptococcus pneumoniae (GC 1894)", "setting": "Streptococcus sp.", "result": "<0.06", "unit": "µg/mL"}, {"measurement": "MIC Streptococcus pneumoniae (GC 4565)", "setting": "Streptococcus sp.", "result": "<0.06", "unit": "µg/mL"}, {"measurement": "MIC Streptococcus pneumonine (ATCC 6301)", "setting": "Streptococcus sp.", "result": "<0.06", "unit": "µg/mL"}, {"measurement": "MIC Streptococcus pyogenes (GC 4563)", "setting": "Streptococcus sp.", "result": "<0.06", "unit": "µg/mL"}, {"measurement": "median effective dose (ED50), Staphylococcus aureus-SMITH (GC 4543)", "setting": "[1]", "result": 0.26, "unit": "mg/kg"}]}
